Data taken from US20240408008A1, “AN IN-SITU GELLING ENEMA OF RIFAMYCIN FOR TREATING POUCHITIS AND DISTAL ULCERATIVE COLITIS” (COSMO TECHNOLOGIES LTD., priority 2021, published 2024).
Converted amounts (≈) assume the structure as drawn.

Tests used:
[1] = tested on: Klebsiella oxytoca; experiment: MIC, broth dilution; type: cell-based; settings: aerobic
[2] = tested on: Rothia dentocariosa; experiment: MIC, broth dilution; type: cell-based; settings: DSM43762; Rothia dentocariosa (DSM 43762); aerobic
[3] = tested on: Escherichia coli; experiment: MIC, broth dilution; type: cell-based; settings: aerobic
[4] = tested on: Enteroccocus faecium; experiment: MIC, broth dilution; type: cell-based; settings: aerobic
[5] = tested on: B. longum; experiment: MIC, broth dilution; type: cell-based; settings: Bifidobacterium longum, anaerobic
[6] = tested on: Fusobacterium ulcerans; experiment: MIC, broth dilution; type: cell-based; settings: DSM19847; Fusobacterium ulcerans (DSM 19847); anaerobic
[7] = tested on: Eikenella corrodens; experiment: MIC, broth dilution; type: cell-based; settings: DSM8340; Eikenella corrodens (DSM 8340); anaerobic
[8] = tested on: Aggregatibacter actinomycetemcomitans; experiment: MIC, broth dilution; type: cell-based; settings: DSM11123; Aggregatibacter actinomycetemcomitans (DSM 11123); anaerobic
[9] = tested on: Porphiromonas gingivalis; experiment: MIC, broth dilution; type: cell-based; settings: Porphiromonas gingivalis (DSM 20709); anaerobic
[10] = tested on: Veillonella parvula; experiment: MIC, broth dilution; type: cell-based; settings: DSM2007; Veillonella parvula DSM 2007; anaerobic
[11] = tested on: Clostridium difficile; experiment: MIC, broth dilution; type: cell-based; settings: Clostridioides difficile, anaerobic
Source text: The Minimum Inhibitory Concentration (MIC) is defined as the lowest concentration expressed in mg/L (equivalent to μg/mL) of an antimicrobial ingredient or agent that is bacteriostatic (prevents the visible growth of bacteria). MICs are used to evaluate the antimicrobial efficacy of various compounds by measuring the effect of decreasing concentrations of antibiotic over a defined period in terms of inhibition of microbial population growth. MIC is generally regarded as the most basic laboratory measurement of the activity of an antimicrobial agent against an organism.
Antimicrobial characteristics of Rifamycin sodium salt was assessed on a panel of selected bacteria involved in pouchitis pathogenesis and a standard broth dilution method was used to determine the MIC of Rifamycin. Briefly, two-fold dilutions of the tested compounds were dispensed in 96 round bottom well plates, each dilution was processed in the liquid culture medium suitable for the tested bacterial species. Bacteria inocula were prepared by a suspension of the microbial strain in sterile water saline and adjusted to a concentration of 0.5McFarland standard corresponding to 1.5×10^8 CFU/ml. A final bacterial concentration of 0.5-1×10^5 CFU/ml was distributed in each well. […] MIC was recorded when there was visible growth in the positive growth control column (bacterial inoculum without test substance). […]

[12] = Rifamycin concentration in colon homogenates and plasma, HPLC/MS-MS; type: in vivo; settings: rats, single enema of formulation 7639
Protocol: Briefly, rats were anesthetized and treated by enema with formulation 7639 (2 mL/rat) into the rectum by using a catheter. All rats were sacrificed by CO2 inhalation at the predetermined time points. After a single enema administration of 7639 formulation, the concentration of Rifamycin in colon homogenates and plasma was determined by HPLC/MS-MS in samples collected at various time points.

[13] = tested on: DSS induced colitis; experiment: Acute colitis induced by Dextran Sulfate Sodium (DSS); type: in vivo; settings: mice, DSS 2%, enema 67 mg/kg
Protocol: In situ gel enema formulation batch 7663 (same formulation as batch 7639) in vivo efficacy was tested in a murine model of acute colitis induced by Dextran Sulfate Sodium (DSS). This animal model is perhaps the most widely used mouse model of colitis and employs DSS, a chemical colitogen with anticoagulant properties, to induce disease which closely resembles human UC. DSS induced intestinal inflammation results in damage to the epithelial monolayer lining the large intestine allowing the dissemination of proinflammatory intestinal contents (e.g. bacteria and their products) into underlying tissue.
For this study, a group of mice was treated by enema with Batch 7663 (indicated as CB0125 in the figures) (dose 45 mg/kg), one group was treated by enema with Placebo Batch 7679 as a comparator for 7663; a group was treated by enema with Rifamycin powder dissolved in water (67 mg/kg). One group of mice was treated orally PO with 5-ASA at the dose of 100 mg/Kg; this group was introduced as positive control. 5-ASA is the golden standard therapy for inflammatory bowel diseases, including UC, distal UC and proctitis. One group was treated by enema with the vehicle (H2O) only, as negative control.
Briefly DSS (2%) was dissolved in water (w/v) and given to mice in place of normal drinking water. DSS water was provided ad libitum for 5 days and was changed daily. This period was followed by a washout period of 5 days with water only. Mice were weighed daily and monitored for clinical status including hunching, mobility, soft stool and/or diarrhoea. At end of the study mice were sacrificed by CO2 inhalation. Immediately after euthanasia, the animals were laparatomyzed and intestine was exteriorized. The entire colon was isolated from the caecum to the anus, placed unstretched on a ruler and then measured and weighed after rinsing the lumen with saline. The weight was normalized to the colon length by calculating the ratio.
For histological analysis of colon samples, about 2 cm of the middle portion of isolated colon was fixed in a 10% formalin. Each fixed fragment was embedded in paraffin. The slides were stained with haematoxylin and eosin and assessed according to the histological score.

In the case of `CO[C@H]1/C=C/O[C@@]2(C)Oc3c(C)c(O)c4c(O)c(cc(O)c4c3C2=O)NC(=O)/C(C)=C\C=C\[C@H](C)[C@H](O)[C@@H](C)[C@@H](O)[C@@H](C)[C@H](OC(C)=O)[C@@H]1C` [Rifamycin SV], the MIC ([1]; DSM6673, Klebsiella oxytoca (DSM 6673)) is reported as 128 µg/mL (≈ 183 µM), the MIC ([1]; Klebsiella oxytoca, ATCC700324, K. oxytoca (ATCC 700324)) is reported as 200 µg/mL (≈ 287 µM) and the MIC ([1]; Klebsiella oxytoca, DSM4798, K. oxytoca (DSM 4798)) is reported as 256 µg/mL (≈ 367 µM). The MIC ([1]; Klebsiella oxytoca, DSM5175, K. oxytoca (DSM 5175)) was 128 µg/mL (≈ 183 µM), the MIC [2] was under 0.03 µg/mL and the MIC ([3]; ATCC35218, Escherichia coli (ATCC 35218)) was 50 µg/mL (≈ 71.7 µM). It also gave an MIC ([3]; Escherichia coli, ATCC11775, E. coli (ATCC 11775)) of 16 µg/mL (≈ 22.9 µM), an MIC ([3]; Escherichia coli, ATCC25922, E. coli (ATCC 25922)) of 64 µg/mL (≈ 91.7 µM) and an MIC ([3]; Escherichia coli, ATCC51446, E. coli (ATCC 51446)) of 200 µg/mL (≈ 287 µM). The MIC ([3]; Escherichia coli, DSM22312, E. coli (DSM 22312)) was 32 µg/mL (≈ 45.9 µM), the MIC ([3]; Escherichia coli, DSM22313, E. coli (DSM 22313 )) was 64 µg/mL (≈ 91.7 µM) and the MIC ([3]; Escherichia coli, DSM22664, E. coli (DSM 22664 )) was 32 µg/mL (≈ 45.9 µM). It also gave an MIC ([4]; Enteroccocus faecium (0808711)) of 100 µg/mL (≈ 143 µM), an MIC ([4]; Enterococcus faecium, DSM17050, E. faecium (DSM 17050)) of 64 µg/mL (≈ 91.7 µM) and an MIC ([4]; Enterococcus faecium, DSM25697, E. faecium (DSM 25697)) of 1 µg/mL (≈ 1.43 µM). The MIC ([4]; Enterococcus faecium, E. faecium (09006056)) was 100 µg/mL (≈ 143 µM), the MIC ([4]; Enterococcus faecium, E. faecium (DSM13590)) was 32 µg/mL (≈ 45.9 µM) and the MIC ([5]; DSM20088, B. longum (DSM 20088)) was 0.5 µg/mL (≈ 0.717 µM). For the same molecule, the MIC ([5]; DSM20090, B. longum (DSM 20090)) was 0.25 µg/mL (≈ 0.358 µM), the MIC [6] was 16 µg/mL (≈ 22.9 µM) and the MIC [7] was under 0.3 µg/mL. It also gave an MIC [8] of under 0.3 µg/mL, an MIC [9] of under 0.3 µg/mL and an MIC [10] of under 0.03 µg/mL. It also gave an MIC ([11]; ATCC17857, C. difficile (ATCC 17857)) of 0.11 ng/mL (≈ 0.000158 µM), an MIC ([11]; ATCC43953, Clostridium difficile (ATCC 43953)) of 7 ng/mL (≈ 0.01 µM) and a concentration at 6 h ([12]; rat, colon homogenate, other: enema into the rectum, 2 mL/rat, 6 hrs after administration) of 123 ng/g. For the same molecule, the “concentration in blood samples (LLOQ of the method)” value ([12]; 30 min., 1 h, 2 h, 4 h and 6 h) was under 1 ng/mL, the histological score ([13]; compared to 7663) was “lower improvement” and the “clinical score AUC” value ([13]; compared to batch 7663) was “lower efficacy”. The cumulative stool score ([13]; vs vehicle) was “significant improvement”.
